Values of other authors as cited in publication PMC4522190 (ChemistryOpen, 2015).

System: proteases
Details: statement without data

## cyclo-RRRWFW (head to tail) [c-WFW]
  metabolic stability against proteases (in words): good metabolic stability against proteases
